Assay results as given in patent US7396844B1, “Benzamidine derivatives” (Ajinomoto Co., Inc., priority 1997, dated 2008).

Tests used:
[1] = target: T1, activated human blood coagulation factor X (Homo sapiens, UniProt P00742); assay: Determination of activity of inhibiting the activated blood coagulation factor X; format: biochemical; details: for IC50: Table 2, same manner as Example 93, read-out: Activity of inhibiting activated blood coagulation factor X (pIC50) (converted)
T1 construct: purchased Enzyme Research Co
T1 sequence (P00742 235-488 limits assumed): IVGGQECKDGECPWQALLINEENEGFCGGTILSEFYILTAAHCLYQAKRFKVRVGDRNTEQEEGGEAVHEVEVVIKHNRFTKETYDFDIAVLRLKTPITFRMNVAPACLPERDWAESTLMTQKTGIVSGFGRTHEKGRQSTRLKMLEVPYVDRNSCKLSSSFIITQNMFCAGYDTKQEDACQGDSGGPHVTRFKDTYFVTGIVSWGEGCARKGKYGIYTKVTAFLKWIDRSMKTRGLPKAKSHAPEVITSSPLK
T1 sequence (P00742 41-179 partner limits assumed): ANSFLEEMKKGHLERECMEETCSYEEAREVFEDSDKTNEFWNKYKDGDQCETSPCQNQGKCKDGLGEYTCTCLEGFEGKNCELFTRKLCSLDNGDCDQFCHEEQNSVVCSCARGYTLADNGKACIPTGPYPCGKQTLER
Protocol: 130 μl of 100 mM Tris-HCl buffer adjusted to pH 8.4 was added to 10 μl of an aqueous solution of a compound to be tested. Then 10 μl of a 0.5 unit/ml solution of activated human blood coagulation factor X (a product of Enzyme Research Co.) in Tris-HCl buffer hydrochloride of pH 8.4 was added to the resultant mixture. After the incubation at room temperature for 10 minutes, 50 μl of a solution of N-benzoyl-L-isoleucyl-L-glutamyl-glycyl-L-arginyl-p-nitroanilide hydrochloride (a product of Peptide Institute, Inc.) adjusted to 0.8 mM with Tris-HCl buffer (pH 8.4) was added thereto. The absorbance was determined and then the initial reaction rate was determined. A control was prepared in the same manner as that described above except that the solution of the compound to be tested was replaced with 10 μl of Tris-HCl buffer adjusted to pH 8.4.

[2] = tested on: blood plasma; assay: Determination of blood anticoagulating activity by prothrombin time (PT); format: biochemical, human; set-up: key: -log of concentration doubling control PT; details: Table 2; negative logarithm of concentration that elongated PT of the control to twice as long; plasma of healthy people
Protocol: The blood anticoagulating activity was determined by a prothrombin time (PT) determination method. The PT was determined as follows: The blood was taken from healthy people. […] The blood plasma was separated by the centrifugation. 5 μl of DMSO solution containing a test compound was added to 45 μl of the blood plasma. After the incubation at room temperature for 2 minutes, a test tube containing the blood plasma solution was placed in Sysmex CA-3000 fully automatic blood coagulation determination device (a product of Toa Medical Electronics Co., Ltd), and incubated at 37° C. for 3 minutes. […] PT was automatically determined with the device. A sample containing 5 μl of DMSO in place of the solution of the test compound was used as the control. The negative logarithm (PT2) of the concentration of the test compound which elongated PT of the control to the twice as long was determined, and employed as the index of the blood anticoagulating activity.

[3] = target: T2, human thrombin (Homo sapiens, UniProt P00734); assay: Determination of thrombin-inhibiting activity; format: biochemical; details: for IC50: Table 2, same manner as Example 94, read-out: Thrombin-inhibiting activity (pIC50) (converted)
T2 construct: human thrombin (a product of SIGMA Co.); purchased SIGMA Co
Protocol: 130 μl of 100 mM Tris-HCl buffer adjusted to pH 8.4 was added to 10 μl of an aqueous solution of a test compound. Then 10 μl of a solution of human thrombin (a product of SIGMA Co.) adjusted to 2 units/ml with Tris-HCl buffer of pH 8.4 was added to the resultant mixture. […] The absorbance was determined and then the initial reaction rate was determined. A control was prepared in the same manner as that described above except that the solution of the compound to be tested was replaced with 10 μl of tris hydrochloride buffer adjusted to pH 8.4.

Compound | IC50 [1] [µM] | Blood anticoagulating activity (PT2) [2] | IC50 [3] [µM] | Activity of inhibiting activated blood coagulation factor X (pIC50) ([1]; Table 1, negative logarithm of concentration inhibiting 50% of initial rate, Tris-HCl pH 8.4, room temperature) | Thrombin-inhibiting activity (pIC50) ([3]; Table 1, negative logarithm of concentration inhibiting 50% of initial rate, substrate S-2238, Tris-HCl pH 8.4)
N=C(N)c1ccc(C(=O)NCCOc2cccc(C(=N)N)c2)cc1.O=C(O)C(F)(F)F.O=C(O)C(F)(F)F [Compound of Ex. 95, N-[2-(3-amidinophenoxy)ethyl]-4-amidinobenzamide bistrifluoroacetate] | 0.316 | 5.9 |  |  | 
N=C(N)c1cccc(OCCNC(=O)c2ccc(CN)cc2)c1.O=C(O)C(F)(F)F.O=C(O)C(F)(F)F [Compound of Ex. 98, N-[2-(3-amidinophenoxy)ethyl]-4-(aminomethyl)benzamide bistrifluoroacetate] | 3.16 | <4.5 | 631 |  | 
CC(=N)N1CCC(Oc2ccc(C(=O)NCCOc3cccc(C(=N)N)c3)cc2)CC1.O=C(O)C(F)(F)F.O=C(O)C(F)(F)F [Compound of Ex. 99, N-[2-(3-amidinophenoxy)ethyl]-4-(1-acetimidoyl-4-piperidyloxy)benzamide bistrifluoroacetate] | 0.251 | 6.2 | 316 |  | 
N=C(N)c1ccc(C(=O)N[C@@H](COc2cccc(C(=N)N)c2)Cc2ccccc2)cc1.O=C(O)C(F)(F)F.O=C(O)C(F)(F)F [Compound of Ex. 117, N-[(1R)-2-(3-amidinophenoxy)-1-benzylethyl]-4-amidinobenzamide bistrifluoroacetate] | 0.0398 | 6.7 | 251 |  | 
N=C(N)c1ccc(C(=O)N[C@H](CCC(=O)O)COc2cccc(C(=N)N)c2)cc1 [Compound of Ex. 121, (4R)-4-(4-amidinobenzoylamino)-5-(3-amidinophenoxy)pentanoic acid bistrifluoroacetate] | 0.0501 |  | > 1000 |  | 
N=C(N)c1ccc(C(=O)NCCCOc2cccc(C(=N)N)c2)cc1.O=C(O)C(F)(F)F.O=C(O)C(F)(F)F [Compound of Ex. 122, N-[3-(3-amidinophenoxy)propyl]-4-amidinobenzamide bistrifluoroacetate] | 0.501 | 4.5 | > 1000 |  | 
N=C(N)c1ccc(C(=O)NCCSc2cccc(C(=N)N)c2)cc1.O=C(O)C(F)(F)F.O=C(O)C(F)(F)F [Compound of Ex. 143, N-[2-(3-amidinophenylthio)ethyl]-4-amidinobenzamide bistrifluoroacetate] | 0.501 | 5.3 |  |  | 
N=C(N)c1ccc(C(=O)NCCCc2cccc(C(=N)N)c2)cc1.O=C(O)C(F)(F)F.O=C(O)C(F)(F)F [Compound of Ex. 144, N-[3-(3-amidinophenyl)propyl]-4-amidinobenzamide bistrifluoroacetate] | 1.58 | 5 |  |  | 
N=C(N)c1ccc(C(=O)NCCOc2cc(C(=N)N)ccc2CC(=O)C(=O)O)cc1 [Compound of Ex. 147, bistrifluoroacetate] | 0.0398 | 6.5 | 20 |  | 
N=C(N)c1cccc(OC[C@H](Cc2ccc(OC3CCNCC3)cc2)NS(=O)(=O)c2ccccc2)c1.O=C(O)C(F)(F)F.O=C(O)C(F)(F)F [Compound of Ex. 154, 3-[(2S)-2-(benzenesulfonylamino)-3-[4-(4-piperidyloxy)phenyl]propoxy]benzamidine bistrifluoroacetate] | 1.58 | 5.1 | 79.4 |  | 
CC(=N)N1CCC(Oc2ccc(C[C@@H](COc3cccc(C(=N)N)c3)NS(=O)(=O)c3ccccc3)cc2)CC1.O=C(O)C(F)(F)F.O=C(O)C(F)(F)F [Compound of Ex. 158, 3-[(2S)-2-(benzenesulfonylamino)-3-[4-(1-acetimidoyl-4-piperidyloxy)phenyl]propoxy]benzamidine bistrifluoroacetate] | 0.158 | 6.2 | 50.1 |  | 
CCS(=O)(=O)N[C@H](COc1cccc(C(=N)N)c1)Cc1ccc(OC2CCN(C(C)=N)CC2)cc1 [Compound of Ex. 160, 3-[(2S)-2-(ethanesulfonylamino)-3-[4-(1-acetimidoyl-4-piperidyloxy)phenyl]propoxy]benzamidine bistrifluoroacetate] | 0.316 |  | 158 |  | 
CC(=N)N1CCC(Oc2ccc(C[C@@H](COc3cccc(C(=N)N)c3)NS(=O)(=O)c3ccc4ccccc4c3)cc2)CC1 [Compound of Ex. 162, 3-[(2S)-2-(2-naphthalenesulfonylamino)-3-[4-(1-acetimidoyl-4-piperidyloxy)phenyl]propoxy]benzamidine bistrifluoroacetate] | 0.251 |  | 39.8 |  | 
CC(=N)N1CCC(Cc2ccc(C[C@@H](COc3cccc(C(=N)N)c3)NS(=O)(=O)c3ccccc3)cc2)CC1.O=C(O)C(F)(F)F.O=C(O)C(F)(F)F [Compound of Ex. 165, 3-[(2S)-2-(benzenesulfonylamino)-3-[4-[(1-acetimidoyl-4-piperidyl)methyl]phenyl]propoxy]benzamidine bistrifluoroacetate] | 0.2 | 6 | 100 |  | 
N=C(N)c1cccc(OC[C@H](Cc2ccc(OC3CCNCC3)cc2)NS(=O)(=O)c2ccc(C(=O)O)cc2)c1.O=C(O)C(F)(F)F.O=C(O)C(F)(F)F [Compound of Ex. 167, 4-[(2S)-1-[4-(4-piperidyloxy)phenyl]-3-(3-amidinophenoxy)-2-propylsulfamoyl]benzoic acid bistrifluoroacetate] | 0.501 | 5 | 126 |  | 
CC(=N)N1CCC(Oc2ccc(C[C@@H](COc3cccc(C(=N)N)c3)NS(=O)(=O)c3ccc(C(=O)O)cc3)cc2)CC1.O=C(O)C(F)(F)F.O=C(O)C(F)(F)F [Compound of Ex. 168, 4-[(2S)-1-[4-(1-acetimidoyl-4-piperidyloxy)phenyl]-3-(3-amidinophenoxy)-2-propylsulfamoyl]benzoic acid bistrifluoroacetate] | 0.0316 | 6.2 | 79.4 |  | 
CC(=N)N1CCC(Oc2ccc(C[C@@H](COc3cccc(C(=N)N)c3)NS(=O)(=O)c3ccc(/C=C/C(=O)O)cc3)cc2)CC1.O=C(O)C(F)(F)F.O=C(O)C(F)(F)F [Compound of Ex. 171, (2E)-3-[4-[(2S)-1-[4-(1-acetimidoyl-4-piperidyloxy)phenyl]-3-(3-amidinophenoxy)-2-propylsulfamoyl]phenyl]acrylic acid bistrifluoroacetate] | 0.1 | 6 | 39.8 |  | 
CC(=N)N1CCC(Oc2ccc(C[C@@H](CCc3cccc(C(=N)N)c3)NS(=O)(=O)c3ccccc3)cc2)CC1.O=C(O)C(F)(F)F.O=C(O)C(F)(F)F [Compound of Ex. 175, 3-[(3R)-3-(benzenesulfonylamino)-4-[4-(1-acetimidoyl-4-piperidyloxy)phenyl]butyl]benzamidine bistrifluoroacetate] | 0.251 | 5.9 | 63.1 |  | 
CC(=N)N1CCC(Oc2ccc(C[C@H](NS(=O)(=O)c3ccccc3)C(=O)Nc3cccc(C(=N)N)c3)cc2)CC1.O=C(O)C(F)(F)F.O=C(O)C(F)(F)F [Compound of Ex. 178, (2S)—N-(3-amidinophenyl)-2-(benzenesulfonylamino)-3-[4-(1-acetimidoyl-4-piperidyloxy)phenyl]propionamide bistrifluoroacetate] | 0.501 | 5.7 | > 398 |  | 
N=C(N)c1ccc(CC(=O)C(=O)O)c(OC[C@H](Cc2ccc(OC3CCNCC3)cc2)NS(=O)(=O)c2ccccc2)c1.O=C(O)C(F)(F)F.O=C(O)C(F)(F)F [Compound of Ex. 180, 3-[4-amidino-2-[(2S)-2-(benzenesulfonylamino)-3-[4-(4-piperidyloxy)phenyl]propoxy]phenyl]-2-oxopropionic acid bistrifluoroacetate] | 0.158 | 5.7 | 3.16 |  | 
N-[2-(3-amidinophenoxy)ethyl]-1-(4-pyridyl)piperidine-4-carboxyamide bistrifluoroacetate [Compound of Ex. 24] |  |  |  | 6.5 | 3.2
